Results from ChEMBL document CHEMBL1139988, “Discovery of structurally diverse HIV-1 integrase inhibitors based on a chalcone pharmacophore” (Bioorg Med Chem, 2007).
pIC50: −log10 of the molar value.

Experiments:
[1] = molecular target: T1, Human immunodeficiency virus type 1 integrase (Human immunodeficiency virus 1, UniProt Q7ZJM1); assay: Inhibition of HIV1 integrase strand transfer activity
[2] = molecular target: T1, Human immunodeficiency virus type 1 integrase; assay: Inhibition of HIV1 integrase 3'-end processing activity
[3] = molecular target: T1, Human immunodeficiency virus type 1 integrase; assay: Inhibition of HIV1 integrase strand transfer activity in presence of magnesium cofactor
[4] = molecular target: T1, Human immunodeficiency virus type 1 integrase; assay: Inhibition of HIV1 integrase 3'-end processing activity in presence of magnesium cofactor

T1 sequence (Q7ZJM1 whole entry): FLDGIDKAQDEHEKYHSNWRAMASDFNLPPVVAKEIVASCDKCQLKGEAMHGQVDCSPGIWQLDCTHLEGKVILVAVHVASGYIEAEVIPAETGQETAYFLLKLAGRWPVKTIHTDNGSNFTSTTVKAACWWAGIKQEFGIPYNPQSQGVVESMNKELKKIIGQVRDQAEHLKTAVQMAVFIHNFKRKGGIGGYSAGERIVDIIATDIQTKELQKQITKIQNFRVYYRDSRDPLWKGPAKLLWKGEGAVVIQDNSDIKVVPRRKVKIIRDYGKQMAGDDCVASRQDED

| SMILES | pIC50 [1] | pIC50 [2] | pIC50 [3] | pIC50 [4] |
| --- | --- | --- | --- | --- |
| O=C(/C=C/c1ccc2c(c1)OCO2)c1ccccc1 | < 4.00 | < 4.00 |  |  |
| O=C(NC1CCCCC1)C(c1ccco1)N(C(=O)Cn1nnc2ccccc21)c1ccc(S(=O)(=O)NCC2CCCO2)cc1 (configuration not stated) | < 4.00 | < 4.00 |  |  |
| CCCn1c(N/N=C/c2cc(Br)ccc2O)nc2c1c(=O)[nH]c(=O)n2C | 4.10 | < 4.00 |  |  |
| CCOc1ccc(-c2c(C#N)c(N)nc(SCC(=O)c3cc4cc(Br)cc(Br)c4oc3=O)c2C#N)cc1 | 5.40 | 5.22 | 5.02 | 4.77 |
| O=C(NNC(=O)c1c(O)c2ccccc2[nH]c1=O)c1ccccc1[N+](=O)[O-] | 4.34 | 4.27 |  |  |
| O=C(CSc1nc2ccccc2c(=O)n1CC1CCCO1)NNC(=O)c1ccccc1O (configuration not stated) | 4.22 | 4.07 |  |  |
| CCCc1nc2ccccc2c(=O)n1NC(=O)c1c(O)c2cccc3c2n(c1=O)CCC3 | 4.24 | 4.19 |  |  |
| O=C(Nc1nccs1)/C(O)=C/C(=O)c1ccc(Cl)cc1 | 4.15 | 4.02 |  |  |
| COc1cc(OC)c(C(=O)/C=C/c2cccc([N+](=O)[O-])c2)cc1OC | < 4.00 | < 4.00 |  |  |
| O=C(COc1ccc2ccccc2c1)NNC(=O)c1ccccc1O | 4.74 | 4.54 |  |  |
| COc1cc(C(=O)/C=C/c2ccc3c(c2)OCO3)cc(OC)c1OC | < 4.00 | < 4.00 |  |  |
| COc1ccc(NC(=O)CSc2nc(-c3ccncc3)nn2CC(=O)NCc2ccco2)cc1 | < 4.00 | < 4.00 |  |  |
| O=C(/C=C/c1ccccc1OC(=O)c1cc2ccccc2oc1=O)c1ccccc1 | 4.04 | < 4.00 |  |  |
| COc1ccc(C(=O)Nc2ccccc2C(=O)NC(C(=O)NNC(=O)c2ccccc2O)C(C)C)cc1 (configuration not stated) | 4.80 | 4.72 |  |  |
| NC(=O)NN=C1c2cc(S(=O)(=O)NCc3ccco3)ccc2-c2ccc(S(=O)(=O)NCc3ccco3)cc21 | 4.70 | 4.04 |  |  |
| CCCCCCc1nc2ccccc2c(=O)n1NC(=O)c1c(O)c2ccccc2n(CC)c1=O | < 4.00 | < 4.00 |  |  |
| Cc1nc(SCC(=O)c2ccc(O)c(O)c2)c(C#N)c(CC(C)C)c1C(N)=O | 4.07 | < 4.00 |  |  |
| O=C(CSc1nnc(-c2ccncc2)[nH]1)c1ccc(O)cc1O | 4.60 | 4.04 |  |  |
| Oc1ccc(-c2csc(Nc3ncccn3)n2)cc1O | 4.08 | 3.52 |  |  |
| O=C(Nc1cccc(O)c1)c1cc(C(=O)Nc2cccc(O)c2)cc(N2C(=O)c3ccccc3C2=O)c1 | 4.00 | 4.00 |  |  |

| SMILES | pIC50 [1] | pIC50 [2] | pIC50 [3] | pIC50 [4] |
| --- | --- | --- | --- | --- |
| COc1cc([N+](=O)[O-])cc(/C=N/Nc2nc(Nc3ccccc3)nc(Nc3ccccc3)n2)c1O | 4.54 | 4.54 |  |  |
| O=C(Nc1ccccc1C(=O)O)c1ccc(C(=O)Nc2ccccc2C(=O)O)cc1 | 4.49 | 4.17 |  |  |
| COc1cccc(/C=C/C(=O)c2ccccc2)c1O | 5.70 | 5.70 |  |  |
| CCn1c(=O)c(C(=O)NNC(=O)c2ccccc2[N+](=O)[O-])c(O)c2ccccc21 | 4.52 | 4.44 |  |  |
| CCCn1c(=O)c(C(=O)NNC(=O)c2ccccc2)c(O)c2ccccc21 | 4.18 | 4.00 |  |  |
| O=[N+]([O-])c1cc(Br)cc(/C=N/Nc2nc(Nc3ccccc3)nc(Nc3ccccc3)n2)c1O | 6.22 | 5.72 |  |  |
| Nc1cc(O)nc(SCC(=O)c2ccc(O)c(O)c2)n1 | 4.05 | 3.56 |  |  |
| COc1ccc(/C=C/C(=O)c2ccc(O)cc2O)cc1 | 4.41 | < 4.00 |  |  |
| COc1ccc(Nc2nc(NCc3ccco3)nc(N/N=C/c3ccc(Br)cc3)n2)cc1 | 4.89 | 4.74 |  |  |
| Cc1ccc(NP(=O)(Oc2ccccc2)Oc2ccccc2)cc1 | < 3.00 | < 3.00 |  |  |
| O=C(Oc1ccc(/C=N/Nc2nnc3c(n2)[nH]c2ccccc23)cc1)c1ccc(Br)cc1 | 3.10 | 3.07 |  |  |
| CNc1nc(N/N=C/c2ccc(-c3ccc([N+](=O)[O-])cc3OC)o2)nc(Nc2ccccc2)n1 | 4.43 | 4.09 |  |  |
| O=C(N/N=C/c1cccc([N+](=O)[O-])c1)c1cccc(C(=O)N/N=C/c2cccc([N+](=O)[O-])c2)n1 | 3.89 | 3.82 |  |  |
| Cc1cc(O)nc(SCC(=O)c2ccc(O)c(O)c2)n1 | 3.89 | 3.51 |  |  |
| Cc1ccc(NCC(=O)N/N=C/c2cccc(OC(=O)c3ccc4c(c3)OCO4)c2)cc1 | 3.14 | 3.17 |  |  |
| Oc1ccc(Br)cc1/C=N/Nc1nc2nonc2nc1Nc1ccc(F)cc1 | 4.96 | 4.80 |  |  |
| CCn1c(=O)c(C(=O)NNC(=O)c2ccc([N+](=O)[O-])cc2)c(O)c2ccccc21 | 4.70 | 4.49 |  |  |
| COc1ccc(OC)c(C(=O)/C=C/c2ccc3c(c2)OCO3)c1 | < 4.00 | < 4.00 |  |  |
| Cn1c(SCC(=O)NNC(=O)c2cccc(O)c2)nc2sc3c(c2c1=O)CCC3 | 4.00 | 4.06 |  |  |
| COc1cc(C(=O)/C=C/c2ccc3c(c2)OCO3)ccc1O | < 4.00 | < 4.00 |  |  |
